Assays:
NCI-H460 = assay: Cytotoxicity against human H460 cells at 40 uM relative to control; format: functional
[1] = Inhibition of human biotin-labelled p53/GST-tagged Hdm2 interaction preincubated for 20 mins before GST-tagged Hdm2 protein addition measured after 1 hr by HTR-FRET based competition assay
[2] = Inhibition of p53/HDM2 interaction

Q: Which results are given for `CCC[C@@H](C)[C@H](O)[C@H](C)[C@@H](O)[C@@H](C)[C@H](Cc1nc(C2=N[C@@](C)(C3=N[C@@](C)(C(=O)N[C@H]([C@@H](O)[C@@H](C)C(=O)O)[C@@H](C)CC)CS3)CS2)cs1)OC` [HOIAMIDE D]?
A: Activity (NCI-H460): 16%; EC50 [1]: 4.5 µM

Q: For `C=C(C(=O)O)C(CCCCCC)C(=O)O` (centres undefined) [HEXYLITACONIC ACID], which IC50 [2] is on record?
A: 230 µM

Q: For `CCCCCCCC[C@H]1NC(=O)[C@@H](CC(C)C)NC(=O)[C@H]([C@@H](C)O)NC(=O)[C@@H](CC(C)C)NC(=O)[C@@H](CC(N)=O)NC(=O)[C@H](CC(N)=O)NC(=O)[C@H](C)NC(=O)[C@H]([C@@H](C)O)NC(=O)[C@H](CCCN2C=C3C(=O)[C@@](C)(OC(=O)CCC)C(=O)C(Cl)=C3[C@@H](O)[C@]23CCCO3)NC1=O` (relative stereo), which IC50 [2] is on record?
A: 4.6 µM
